The values that follow come from patent US9073940B2, “Tricyclic pyrazol amine derivatives” (MERCK SERONO SA, priority 2009, dated 2015).

Molecules are shown by their SMILES.

The assay relates to 4 PI3K isoforms (Human recombinant GST-PI3K). As to the kind of experiment: PI3K scintillation proximity assay, best IC50 obtained with the four isoforms (alpha, beta, delta, gamma). Conditions: best IC50 obtained with the four isoforms of PI3K; read-out: Best potency measured on the 4 PI3K isoforms. Type of assay: biochemical.
Turning to `O=C(c1nn(C2CCCN(CCC3CCOCC3)C2)c2c1CS(=O)(=O)c1c(Cl)cccc1-2)N1CCOCC1` (centres unmarked) [Example 301, 6-Chloro-3-(morpholin-4-ylcarbonyl)-1-{1-[2-(tetrahydro-2H-pyran-4-yl)ethyl]piperidin-3-yl}-1,4-dihydrothiochromeno[4,3-c]pyrazole 5.5-dioxide], the IC50 came to 38 nM.

With `O=C(c1nn(C2CCCN(CCN3CC(F)(F)C3)C2)c2c1CS(=O)(=O)c1ccccc1-2)N1CCOCC1` (centres unmarked) [Example 273, 1-{1-[2-(3,3-Difluoroazetidin-1-yl)ethyl]piperidin-3-yl}-3-(morpholin-4-ylcarbonyl)-1,4-dihydrothiochromeno[4,3-c]pyrazole 5,5-dioxide], the IC50 turned out to be 36 nM. `O=C(c1nn(C2CCCN(CCN3CC[C@H](F)C3)C2)c2c1CS(=O)(=O)c1ccccc1-2)N1CCOCC1` (single isomer, unassigned) [Example 282]: the IC50 turned out to be 72 nM. Consider `O=C(c1nn(C2CCCN(CCN3CC(F)(F)C3)C2)c2c1CS(=O)(=O)c1c(F)cccc1-2)N1CCOCC1` (centres unmarked) [Example 414, 1-{1-[2-(3,3-Difluoroazetidin-1-yl)ethyl]piperidin-3-yl}-6-fluoro-3-(morpholin-4-ylcarbonyl)-1,4-dihydrothiochromeno[4,3-c]pyrazole 5,5-dioxide], for which the IC50 worked out at 38 nM. The value for `O=C(c1nn(C2CCOCC2)c2c1C(F)S(=O)(=O)c1ccccc1-2)N1CCOCC1` (centres unmarked) [Example 316, 4-Fluoro-3-(morpholin-4-ylcarbonyl)-1-(tetrahydro-2H-pyran-4-yl)-1,4-dihydrothiochromeno[4,3-c]pyrazole 5,5-dioxide] was 9800 nM; that for `O=C(c1nn(C2CCCN(C3COC3)C2)c2c1CS(=O)(=O)c1ccccc1-2)N1CCOCC1` (centres unmarked) [Example 415, 3-(Morpholin-4-ylcarbonyl)-1-(1-oxetan-3-ylpiperidin-3-yl)-1,4-dihydrothiochromeno[4,3-c]pyrazole 5,5-dioxide] was 67 nM. Turning to `O=C(c1nn(-c2ccccc2)c2c1CS(=O)(=O)c1ccc(Br)cc1-2)N1CCOCC1` [Example 64], the IC50 amounted to 1300 nM. As for `O=C(c1nn(C2CCCN(CCn3cccn3)C2)c2c1CS(=O)(=O)c1c(F)cccc1-2)N1CCOCC1` (centres unmarked) [Example 406, 6-Fluoro-3-(morpholin-4-ylcarbonyl)-1-{1-[2-(1H-pyrazol-1-yl)ethyl]piperidin-3-yl}-1,4-dihydrothiochromeno[4,3-c]pyrazole 5,5-dioxide], the IC50 worked out at 80 nM.

Consider `O=C(c1nn(-c2ccccc2)c2c1CS(=O)(=O)c1sccc1-2)N1CCOCC1` [Example 192, 3-(Morpholin-4-ylcarbonyl)-1-phenyl-1,4-dihydrothieno[3′,2′:5,6]thiopyrano[4,3-c]pyrazole 5,5-dioxide], for which the IC50 stood at 1700 nM. Turning to `CN(C)C(=O)c1ccc2c(c1)-c1c(c(C(=O)N3CCOCC3)nn1-c1ccccc1)CS2(=O)=O` [Example 115, N,N-Dimethyl-3-(morpholin-4-ylcarbonyl)-1-phenyl-1,4-dihydrothiochromeno[4,3-c]pyrazole-8-carboxamide 5,5-dioxide], the IC50 was 3730 nM. `O=C(c1nn(-c2cccc(Br)c2)c2c1CS(=O)(=O)c1ccccc1-2)N1CCOCC1` [Example 25, 1-(3-bromophenyl)-3-(morpholin-4-ylcarbonyl)-1,4-dihydrothiochromeno[4,3-c]pyrazole 5,5-dioxide]: the IC50 was found to be 616 nM. To `O=C(c1nn(-c2ccccc2)c2c1C(Cc1ccccc1)S(=O)(=O)c1ccccc1-2)N1CCOCC1` (centres unmarked) [Example 57, 4-benzyl-3-(morpholin-4-ylcarbonyl)-1-phenyl-1,4-dihydrothiochromeno[4,3-c]pyrazole 5,5-dioxide] belongs 2480 nM. To `Cc1cccc2c1S(=O)(=O)Cc1c(C(=O)N3CCOCC3)nn(-c3ccccc3)c1-2` [Example 202, 6-Methyl-3-(morpholin-4-ylcarbonyl)-1-phenyl-1,4-dihydrothiochromeno[4,3-c]pyrazole 5,5-dioxide] belongs 1740 nM; to `CC(=O)N1CCC(Cn2nc(C(=O)N3CCOCC3)c3c2-c2ccccc2S(=O)(=O)C3)CC1` [Example 191, 1-[(1-Acetylpiperidin-4-yl)methyl]-3-(morpholin-4-ylcarbonyl)-1,4-dihydrothiochromeno[4,3-c]pyrazole 5,5-dioxide], 2820 nM.

Turning to `COc1cccc2c1S(=O)(=O)Cc1c(C(=O)N3CCOCC3)nn([C@H]3CCCN(CCN4CC(F)C4)C3)c1-2` (single isomer, unassigned) [Example 443, 1-{1-[2-(3-fluoroazetidin-1-yl)ethyl]piperidin-3-yl}-6-methoxy-3-(morpholin-4-ylcarbonyl)-1,4-dihydrothiochromeno[4,3-c]pyrazole 5,5-dioxide], the IC50 was determined as 62 nM.

On to `O=C(c1nn(-c2ccc(CN3CCCCC3)cc2)c2c1CS(=O)(=O)c1ccccc1-2)N1CCOCC1` [Example 169, 3-(Morpholin-4-ylcarbonyl)-1-[4-(piperidin-1-ylmethyl)phenyl]-1,4-dihydrothiochromeno[4,3-c]pyrazole 5,5-dioxide], for which the IC50 turned out to be 110 nM.

As for `O=C(c1nn(-c2ccc3c(c2)OCCO3)c2c1CS(=O)(=O)c1ccccc1-2)N1CCOCC1` [Example 23, 1-(2,3-dihydro-1,4-benzodioxin-6-yl)-3-(morpholin-4-ylcarbonyl)-1,4-dihydrothiochromeno[4,3-c]pyrazole 5,5-dioxide], the IC50 came to 670 nM. Turning to `O=C(c1nn(-c2cccc(Cn3ccnc3)c2)c2c1CS(=O)(=O)c1ccccc1-2)N1CCOCC1` [Example 291, 1-[3-(1H-imidazol-1-ylmethyl)phenyl]-3-(morpholin-4-ylcarbonyl)-1,4-dihydrothiochromeno[4,3-c]pyrazole 5,5-dioxide], the IC50 amounted to 673 nM. The value for `CC(C)(C)CCN1CCCC(n2nc(C(=O)N3CCOCC3)c3c2-c2ccccc2S(=O)(=O)C3)C1` (centres unmarked) [Example 220, 1-[1-(3,3-Dimethylbutyl)piperidin-3-yl]-3-(morpholin-4-ylcarbonyl)-1,4-dihydrothiochromeno[4,3-c]pyrazole 5,5-dioxide] was 587 nM; that for `O=C(c1nn([C@@H]2CCCN(CCN3CCOCC3)C2)c2c1CS(=O)(=O)c1c(Cl)cccc1-2)N1CCOCC1` [Example 387] was 5230 nM. As for `Cn1nc(C(=O)N2CCOCC2)c2c1-c1cccc(F)c1S(=O)(=O)C2` [Example 14, 6-fluoro-1-methyl-3-(morpholin-4-ylcarbonyl)-1,4-dihydrothiochromeno[4,3-c]pyrazole 5,5-dioxide], the IC50 is 687 nM. The value for `CS(=O)(=O)C1CCN(Cc2ccc(-n3nc(C(=O)N4CCOCC4)c4c3-c3ccccc3S(=O)(=O)C4)cc2)C1` (centres unmarked) [Example 229, 1-(4-{[3-(Methylsulfonyl)pyrrolidin-1-yl]methyl}phenyl)-3-(morpholin-4-ylcarbonyl)-1,4-dihydrothiochromeno[4,3-c]pyrazole 5,5-dioxide] was 920 nM; that for `O=C(c1nn(C2CCCN(CCC3CCOCC3)C2)c2c1CS(=O)(=O)c1c(F)cccc1-2)N1CCOCC1` (centres unmarked) [Example 280, 6-Fluoro-3-(morpholin-4-ylcarbonyl)-1-{1-[2-(tetrahydro-2H-pyran-4-yl)ethyl]piperidin-3-yl)-1,4-dihydrothiochromeno[4,3-c]pyrazole 5,5-dioxide] was 22 nM; that for `CN(C)CCN1CCCC(n2nc(C(=O)N3CCOCC3)c3c2-c2ccccc2S(=O)(=O)C3)C1` (centres unmarked) [Example 253, N,N-Dimethyl-2-{3-[3-(morpholin-4-ylcarbonyl)-5,5-dioxidothiochromeno[4,3-c]pyrazol-1 (4H)-yl]piperidin-1-yl}ethanamine] was 72 nM. The value for `CS(=O)(=O)Nc1ccc2c(c1)-c1c(c(C(=O)N3CCOCC3)nn1-c1ccccc1)CS2(=O)=O` [Example 118, N-[3-(Morpholin-4-ylcarbonyl)-5,5-dioxido-1-phenyl-1,4-dihydrothiochromeno[4,3-c]pyrazol-8-yl]methanesulfonamide] was 1310 nM; that for `O=C(c1nn(C2CCCN(c3ccccc3)C2)c2c1CS(=O)(=O)c1ccccc1-2)N1CCOCC1` (centres unmarked) [Example 218, 3-(Morpholin-4-ylcarbonyl)-1-(1-phenylpiperidin-3-yl)-1,4-dihydrothiochromeno[4,3-c]pyrazole 5,5-dioxide] was 468 nM; that for `O=C(c1nn(Cc2ccccn2)c2c1CS(=O)(=O)c1ccccc1-2)N1CCOCC1` [Example 47, 3-(morpholin-4-ylcarbonyl)-1-(pyridin-2-ylmethyl)-1,4-dihydrothiochromeno[4,3-c]pyrazole 5,5-dioxide] was 3960 nM.

Turning to `COCCN1CCC(n2nc(C(=O)N3CCOCC3)c3c2-c2ccccc2S(=O)(=O)C3)CC1` [Example 101, 1-[1-(2-Methoxyethyl)piperidin-4-yl]-3-(morpholin-4-ylcarbonyl)-1,4-dihydrothiochromeno[4,3-c]pyrazole 5,5-dioxide], the IC50 is 1920 nM. The value for `COC1CCN(Cc2ccc(-n3nc(C(=O)N4CCOCC4)c4c3-c3ccccc3S(=O)(=O)C4)cc2)C1` (centres unmarked) [Example 267, 1-{4-[(3-Methoxypyrrolidin-1-yl)methyl]phenyl}-3-(morpholin-4-ylcarbonyl)-1,4-dihydrothiochromeno[4,3-c]pyrazole 5,5-dioxide] was 59 nM. To `O=C(c1nn(-c2ccc(CNC3CCOC3)cc2)c2c1CS(=O)(=O)c1ccccc1-2)N1CCOCC1` (centres unmarked) [Example 456, N-{4-[3-(Morpholin-4-ylcarbonyl)-5,5-dioxidothiochromeno[4,3-c]pyrazol-1(4H)-yl]benzyl}tetrahydrofuran-3-amine] belongs 156 nM. To `CC(C)CCOC1CCN(Cc2cccc(-n3nc(C(=O)N4CCOCC4)c4c3-c3ccccc3S(=O)(=O)C4)c2)C1` (centres unmarked) [Example 235, 1-(3-{[3-(3-Methylbutoxy)pyrrolidin-1-yl]methyl}phenyl)-3-(morpholin-4-ylcarbonyl)-1,4-dihydrothiochromeno[4,3-c]pyrazole 5,5-dioxide] belongs 389 nM; to `O=C(c1nn(-c2cccc(CN3CCSCC3)c2)c2c1CS(=O)(=O)c1ccccc1-2)N1CCOCC1` [Example 236, 3-(Morpholin-4-ylcarbonyl)-1-[3-(thiomorpholin-4-ylmethyl)phenyl]-1,4-dihydrothiochromeno[4,3-c]pyrazole 5,5-dioxide], 232 nM.
